Test results as given in article PMC11542593, “Vascular endothelial growth factor receptor 2 as a potential host target for the inhibition of enterovirus replication” (Journal of Virology, 2024).

How the values were obtained:
EV-A71 [1] = test: EV-A71 replication in multiple cell types (293T, Vero-E6, Huh7, HepG2, HT-29, Caco2); assay type: cell-based, Human enterovirus A71; conditions: Vero-E6, Huh7, HepG2 (MOI 1), HT-29, Caco2 (MOI 2), 24 hpi
EV-A71 [2] = test: Viral load reduction assay in RD cells (RT-qPCR, TCID50, VP1 Western blot); assay type: cell-based, Human enterovirus A71; conditions: MOI 0.1, 24 h
Experimental: (§1) Detection of cellular mRNA expression and viral load was performed as described previously ([24]). In brief, the infected or mock-infected cells were lysed and applied to total RNA extraction by using the MiniBEST Universal RNA Extraction Kit (TaKaRa, Code No.9767). Viral RNA in the supernatant was extracted with the MiniBEST Viral RNA Extraction Kit (TaKaRa, Code No.9766). Reverse transcription was performed using the PrimeScript RT reagent Kit (TaKaRa, Code No.PR037A) with an oligo (dT) primer. The resultant cDNAs were used for qPCR assay with the Light Cycler 480 SYBR Green I Master Mix (Roche) to measure the mRNA expression level of cellular genes or viral load in supernatants. The relative viral gene copy was determined by RT-qPCR, using GAPDH as an internal reference.
(§2) The viral titer in the indicated samples was determined by TCID50 assay as described previously ([25]). Briefly, serially diluted samples from 10^−1 to 10^−8 in DMEM were inoculated to RD cells, BGMK cells, or MRC-5 in 96‐well plates. The cells were then incubated for 2 to 3 days at 37°C. TCID50 was calculated by counting the wells with cytopathic effect in infected cells using the Reed–Muench method.
Western blot analysis was performed as described previously ([26]). In brief, the indicated cell samples were lysed in RIPA buffer supplemented with protease inhibitors (Thermo Fisher Scientific, 78430). The cell lysates were then separated in 10% SDS-PAGE and transferred to a 0.45-µm nitrocellulose membrane. After blocking, the membrane was incubated with an against VP1 antibody (GeneTex, GTX132339), VEGFR1 antibody (Abcam, ab32152), VEGFR2 antibody (Abcam, ab134191), phosphorylated VEGFR2 antibody (Tyr951) (CST 4991), VEGFR3 antibody (Beyotime, AF6918), Akt antibody (CST 4685), phosphorylated Akt antibody (CST 4060), or GAPDH antibody (GeneTex, GTX627408) diluted 1:5,000 in primary antibody dilution buffer overnight at 4°C, followed by corresponding secondary staining. The blots were visualized by western horseradish peroxidase substrate and imaged with Gel Doc XR+.
The results represent cell viability in the EV-A71-infected RD cells or 2D human intestinal organoids treated with DMSO (Negative control), Pirodavir (Positive control), or indicated VEGFR inhibitor (10 µM) relative to those in mock-infected RD cells or 2D human intestinal organoids. […] Significant inhibition of EV-A71 infection was found for both cell lysate (left) and supernatant (right) using RT-qPCR analysis. The results represent the viral load in the cells treated with indicated inhibitors relative to that in DMSO-treated cells. (C) Viral titer was also determined for inhibitor-treated samples in TCID50 assays. […] (D) Representative images of immunofluorescence assay for selected inhibitors using Rabbit anti‐VP1 antibody (green). Nuclei are counterstained with DAPI (blue). Scale bar, 50 µm.
Nuclei are counterstained with DAPI (blue). Scale bar, 50 µm.
Fig. S2. […] The results represent the viral load in the cells treated with indicated concentration of VEGFR inhibitors relative to that in DMSO-treated cells. Viral titer was also determined for samples treated with indicated concentrations of VEGFR inhibitors in TCID50 assays.
Fig. S7. Viral reduction in RD cells with Src inhibitor treatment. […] Significant inhibition of EV-A71 infection was found for both cell lysate (left) and supernatant (middle) using RT-qPCR analysis. The results represent the viral load in the cells treated with Dasatinib relative to that in DMSO-treated cells. Viral titer was also determined for inhibitor-treated samples in TCID50 assays (right). […] (C) VP1 protein levels were measured for samples treated with DMSO or Dasatinib using western blotting.
Fig. S8. Viral reduction in RD cells with Akt inhibitor treatment. […] Significant inhibition of EV-A71 infection was found for both cell lysate (left) and supernatant (middle) using RT-qPCR analysis. […]

EV-A71 [3] = test: EV-A71 inactivation (virucidal) assay; parameters: species or system Human enterovirus A71; conditions: 10 µM, 2 h at 25°C, TCID50
Experimental: Fig. S5. […] (A) EV-A71 inactivation assay. […] (B) EV-A71 attachment assay. […] After 2 hpi, the infectious inoculum was removed and cells were washed again. The intracellular viral RNA load was then determined using RT-qPCR analysis. (C) EV-A71 entry assay.

EV-D70 = test: Antiviral activity against EV-D70 in RD cells (RT-qPCR, TCID50); assay type: cell-based, enterovirus D70; conditions: 10 µM, 0.1 MOI, 24 h
Experimental: as §1, §2
The viral gene copy in the cell lysate is normalized with the transcript of GAPDH and presented. Viral titers were also detected by TCID50 assay. […] All experiments were independently repeated thrice.

[4] = CellTiter-Glo luminescent cell viability assay (cytotoxicity); conditions: human, RD cells
Experimental: Fig. S1. (A) RD cells were treated with the indicated concentrations of inhibitors and incubated at 37°C for 24 h. CellTiter‐Glo® luminescent cell viability assay was used to measure the CC50 of selected inhibitors. […] (B) RD cells treated with the selected inhibitors (10 μM) were inoculated with EV-A71 at an MOI of 0.01. At 48 hpi, cells were harvested to detect the expression level of VP1 by western blotting.

[5] = tested on: IL-6, IL-8, TNF-α mRNA expression; test: EV-A71-induced pro-inflammatory cytokine mRNA expression in Huh7 and THP-1 cells; assay type: cell-based; conditions: 10 µM, Huh7 (MOI 2) and THP-1 (MOI 5) cells, 12 hpi
EV-A71 [6] = test: Time-of-drug addition assay in RD cells; assay type: cell-based, Human enterovirus A71; conditions: MOI 1, read at 12 hpi
Experimental: RD cells were seeded into 24-well plates or eight-well chamber slides (Millicell) 1 day before infection with EV-A71 at an MOI of 1. After adsorption for 2 h, the cells were washed with PBS once to remove the unbound virus and maintained in DMEM supplemented with 2% FBS. […] At 12 hpi, the virus from the culture supernatant were collected, and the relative viral gene copy was detected by RT-qPCR. Meanwhile, the virus titer was assessed using TCID50 assay as described before. To analyze VP1 expression, the cells in the eight-well chamber slides were fixed and then monitored using immunofluorescence staining.
(A) Graphical scheme illustrating the experimental design. (B) RT-qPCR measured the amount of viral RNA released into culture supernatant. (C) Viral titer was determined in TCID50 assays. […] Nuclei are counterstained with DAPI (blue). Scale bar, 50 µm.

VEGFR2 = tested on: VEGFR2; parameters: method as in PMID 17620431; conditions: cited from earlier work

Cc1ccc(Nc2nccc(N(C)c3ccc4c(C)n(C)nc4c3)n2)cc1S(N)(=O)=O [Pazopanib]
EV-A71 replication in cell culture supernatants of multiple cell types (EV-A71 [1]): significantly reduced | EV-A71 structural protein VP1 expression, dose dependence (Western blot) (EV-A71 [2]; indicated concentrations): dose-dependent inhibition | EV-A71 viral load and viral titer, dose dependence (EV-A71 [2]; indicated noncytotoxic concentrations): markedly reduced | virucidal effect (EV-A71 virus titers vs DMSO) (EV-A71 [3]): no virucidal effect | decrease in viral load and viral titer (EV-D70): over 2 logs | CC50 at 24 h [4]: 226 ± 27.6 µM | EV-A71-induced pro-inflammatory cytokine activation [5]: significantly suppressed | inhibitory effect, late treatment (EV-A71 [6]; 10 µM added at 6 to 10 hpi): no significant inhibitory effect | viral load and viral titer of progeny virions in culture medium, early treatment (EV-A71 [6]; 10 µM added at −2 h, 0 h, 2 h, 4 h): significantly reduced | IC50 (VEGFR2): […]
